Measured values from patent publication US20110010099A1, “Correlation Analysis of Biological Systems” (priority 2005, published 2011).

Key:
Assay type in all cases: in vivo
[1] = test system: liver of male Wistar Hannover rats; assay: Rat hepatotoxicity study: liver morphology / histopathology for steatosis; settings: 7 days dosing, sacrifice day 8, male Wistar Hannover rats
Excerpt: The primary objective of the study was to discover biomarkers in plasma of hepatic steatotic processes. In the course of this study, multiple molecular profiling techniques and data analysis methodologies were employed. A corollary objective of this study was to elucidate mechanisms underlying hepatic steatosis induced by the drug.
The study was designed to generate tissue and body fluid samples from groups of animals exposed for varying times at different doses to a drug previously shown to produce toxic steatosis of the liver.
(§1) Five Wistar Hannover male rats were used per group. Three groups were dosed for 7 days (control, low and intermediate dose) and urine collected twice daily for up to 7 days. One group was dosed once with a high dose of the drug and kept in a metabolism cage for a recovery study. In addition, three groups (control, intermediate and high dose) were dosed once and sacrificed after 24 hours. Plasma and liver tissue samples were collected from all groups at necropsy. Clinical pathology was performed and histopathological evaluations were provided.
The study was designed to generate tissue and body fluid samples from groups of animals treated for varying times and with different doses of ABC123. The different time points and dosing schedules were intended to allow the identification of biomarkers of steatosis over different times and doses.

[2] = test system: plasma analytes of male Wistar Hannover rats; assay: Plasma GC-MS metabolite profiling in rat hepatotoxicity study; settings: Group 3 drug-administered animals compared to Group 1 animals
Method: as §1
Liver and plasma lipid LC-MS. Samples (liver or plasma) were treated with isopropanol to precipitate the protein and to extract the lipid metabolites. […] Resulting mass spectra were peak detected with IMPRESS (proprietary software, BG Medicine, Inc., Waltham, Mass.) and aligned/normalized with Equest and WinLin (proprietary software, BG Medicine, Inc., Waltham, Mass.). […] Metabolites detected with this approach include polar and non-polar lipids. […] The samples were detected with electron impact ionization on an Agilent 5973 MSD. […] Metabolites detected with this method include: alcohols, aldehydes and cyclohexanols, amino acids, acyl amino acids, succinylamino acids, amines, aromatic compounds, fatty acids (>C6), organic acids, phospho-organic acids, sugars, sugar acids, sugar amines, and sugar phosphates. […]

[3] = test system: Enzyme_ABC in liver tissue; assay: Liver LC-MS proteomics profiling in rat hepatotoxicity study; settings: Group 3 drug-administered animals relative to Group 1 control animals
Method: as §1
• Sample: 100 mg of liver dissected from the thawed liver sample was cut into four 25 mg pieces and homogenized. • Clarification/Fractionation: Unbroken cells, nuclei and extracellular debris were removed using low-G centrifugation, and the resulting clarified homogenate was then subjected to membrane/cytosol fractionation using high-speed ultracentrifugation. • Protein Fractionation of Cytosol: The total cytosolic protein was subjected to C4 reversed-phase column chromatography to isolate 3 fractions for proteomic analysis. […] The resulting membrane tryptic peptide fraction was dried in vacuo. • Profiling of Peptides: Cytosolic peptides from the three acidic peptide sets and the membrane tryptic peptide fraction were quantitatively analyzed for differential expression via reversed-phase LC-ESI-MS. […]

[4] = test system: liver mRNA transcripts (Enzyme_ABC, Enzyme_DEF); assay: Liver mRNA transcript profiling (Affymetrix U34A) in rat hepatotoxicity study; settings: Group 3 drug-administered animals relative to Group 1 control animals
Method: Affymetrix microarray processing was carried out on liver tissue samples from 35 animals distributed among the seven experimental groups.
An additive effect on the log-transformed signal related to hybridization day was modeled, and the triplicate control samples were used to estimate the effect.

## Cn1c(=O)c2c(ncn2CC2OCCO2)n(C)c1=O [ABC123]
[1]; Group 2 (lowest dose): 20 mg/kg/day
  steatosis upon examination of the livers using standard morphology techniques: no evidence of steatosis
[1]; Group 3: 200 mg/kg/day
  steatosis upon examination of the livers using standard morphology techniques: morphological steatosis
[2]
  increase in abundance of Metabolite_XYZ in plasma (plasma GC-MS platform): approximately 1.4 fold
[3]
  reduction in abundance of Enzyme_ABC in liver tissue (proteomics platform): approximately 2 fold
[4]
  reduction in abundance of Enzyme_ABC in liver tissue (mRNA transcript platform): approximately 1.7 fold
